Results: patent US20080317692A1, “SUICIDE SUBSTRATES OF TYROSINASE AND USE THEREOF” (SUSTINEO BIOTECHNOLOGY CO., LTD, priority 2007, published 2008)

Experiments:
mushroom tyrosinase [1] = assay: Enzymatic assay of tyrosinase (dopachrome formation at 475 nm, L-tyrosine or L-DOPA as substrate); assay type: biochemical; settings: 0.05 mM isoflavone; for inhibition of monophenolase activity (dopachrome formation): 0.1 mM L-tyrosine as substrate (FIG. 2A); for lag time of monophenolase activity (L-tyrosine oxidation): 0.1 mM L-tyrosine, tyrosinase 100 units/mL (FIG. 2A)
Description: Ten microliters of the test sample (dissolved in DMSO) was mixed with 970 μL of 0.112 mM substrate (L-tyrosine or L-DOPA dissolved in 50 mM phosphate buffer, pH 6.8) at 25° C. for 2 min. […] The increase in absorbance at 475 nm due to the formation of dopachrome was monitored with a spectrophotometer.

mushroom tyrosinase [2] = assay: HPLC analysis of the reaction of isoflavone with tyrosinase (substrate behaviour); assay type: biochemical; settings: 100 μM isoflavone, tyrosinase 1000 units/mL, 50 mM phosphate buffer pH 6.8 (FIG. 3)
mushroom tyrosinase [3] = assay: Partition ratio of suicide substrate (method of Waley, titration of tyrosinase); assay type: biochemical; settings: for molecules required to inactivate 1 molecule of the enzyme (1+r): 0.1 μM tyrosinase, preincubated 30 min at 25° C., by extrapolation (FIG. 5); for partition ratio r: from the intercept on the abscissa in FIG. 5, which is 1+r
mushroom tyrosinase [4] = assay: Michaelis constant and maximal inactivation rate constant (method of Frere et al.); assay type: biochemical; settings: for maximal inactivation rate constant ki-max / Ki: 0.03 μM tyrosinase, 2.5 mM L-DOPA as enzyme substrate, 50 to 300 μM suicide substrate (FIG. 6); for Ki: read-out: Michaelis constant KI of the inactivator
Source text: The kinetics of inhibition of 7,8,4′-trihydroxyisoflavone and 5,7,8,4′-tetrahydroxyisoflavone were studied by using the method of Frere et al. and by measuring the oxidation of L-DOPA by mushroom tyrosinase in the presence of each of the two suicide substrates. During the assay, the concentration of the tested suicide substrate was much higher than that of the enzyme. When the progress of the inactivation of the enzyme was monitored at high suicide substrate/enzyme ratios, the concentration of suicide substrate ([I]) could be considered as constant throughout the process and a pseudo-first-order rate constant (ki) could be determined by using equation 1, where ki-max and KI represent the maximal inactivation velocity and the Michaelis constant of the inactivator.
In the presence of L-DOPA, the exponential decrease in the rate of oxidation of L-DOPA gave an apparent first-order rate constant kobs, which was computed from plots of ln(vt/v0) against t, where v0 and vt are the rates of increase of absorbance at 475 nm, at zero time and at time t, respectively. Assuming a competitive interaction between the added isoflavone and L-DOPA with the enzyme, the variation of kobs with the concentrations of the isoflavone ([I]) and L-DOPA ([S]) are given by equation 2
where KS and KI are the Michaelis constants for L-DOPA and the isoflavone, respectively. When equation 2 is written as
[I]/kobs=[I]/ki-max+KI/ki-max(1+[S]/KS) (3)
it is clear that a plot of [I]/kobs against [I] will be linear and that ki-max and KI can be found from the intercept and slope.
The Michaelis constants (KI) and maximal inactivation rate constants (ki-max) of suicide substrates were determined according to the method of Frere et al. (17). The inactivation reactions were carried out in the presence of 0.03 μM mushroom tyrosinase, 2.5 mM L-DOPA, and the suicide substrate at concentrations ranging from 50 to 300 μM, and the formation of dopachrome was monitored every second for 2 min with a spectrophotometer. […] Both KI and ki-max could thus be calculated, assuming a competition between the added isoflavone and L-DOPA.

mushroom tyrosinase [5] = assay: Irreversible inhibitory activity assay (preincubation with tyrosinase, then L-DOPA); settings: for enzyme inactivation after preincubation: 10 μM isoflavone, after 7 min of preincubation (FIG. 4); for type of inhibition: preincubation with 3 or 10 μM isoflavone
Description: In irreversible inhibitory activity assays, 20 units of tyrosinase was preincubated with a 3 or 10 μM concentration of the tested isoflavone (dissolved in DMSO) in 1 mL of 50 mM phosphate buffer (pH 6.8) at 25° C. At intervals of 0, 2, 7, 12, and 30 min, 200 μL of the preincubation mixture was mixed with 800 μL of 2.5 mM L-DOPA and incubated at 25° C. for 10 min. The formation of dopachrome in each reaction was monitored with a spectrophotometer. The relative activity was calculated by dividing the absorbance at 475 nm of each reaction by that of the control reaction, in which DMSO replaced the added isoflavone. For recovery experiments, the preincubation mixture incubated for 30 min was either dialyzed twice against 200 mL of phosphate buffer at 4° C. for 1 h with stirring or centrifuged through a Sephadex G-25 spin column (Sigma). Then, the residual tyrosinase activities of the mixtures from the two treatments were assayed as described above.
Then, 800 μL of 2.5 mM L-DOPA was added, and the reaction mixture was incubated at 25° C. for 10 min. For comparison, another set of experiments was conducted by mixing immediately the tested compound, tyrosinase, and L-DOPA in 1 mL of phosphate buffer and incubated at 25° C. for 10 min. The formation of dopachrome in each reaction was monitored with a spectrophotometer. The relative activity was calculated by dividing the absorbance at 475 nm of each reaction mixture by that of the control reaction, in which DMSO replaced the tested compound. All enzymatic reactions described above were carried out at least three times independently, and the average values are presented.

Compound	inhibition of monophenolase activity (dopachrome formation) (mushroom tyrosinase [1])	lag time of monophenolase activity (L-tyrosine oxidation) (mushroom tyrosinase [1])	behaviour as substrate of tyrosinase (HPLC) (mushroom tyrosinase [2])	molecules required to inactivate 1 molecule of the enzyme (1+r) (mushroom tyrosinase [3])	partition ratio r (mushroom tyrosinase [3])	maximal inactivation rate constant ki-max (mushroom tyrosinase [4])	Ki (mushroom tyrosinase [4])	enzyme inactivation after preincubation (mushroom tyrosinase [5])	type of inhibition (mushroom tyrosinase [5])	Michaelis constant KS for L-DOPA (mushroom tyrosinase [4]; same experimental conditions)
O=c1c(-c2ccc(O)cc2)coc2c(O)c(O)cc(O)c12 [5,7,8,4′-tetrahydroxyisoflavone]	slowed and stopped the formation of dopachrome	without the lag time	acted as the substrates of mushroom tyrosinase	36.5±3.8 molecules	35.5±3.8	1.01 ± 0.04 L·min	7.81 ± 0.05 µM	totally inactivated	irreversible inhibitors	
O=c1c(-c2ccc(O)cc2)coc2c(O)c(O)ccc12 [7,8,4′-trihydroxyisoflavone]	slowed and stopped the formation of dopachrome	without the lag time	acted as the substrates of mushroom tyrosinase	82.7±5.9 molecules	81.7±5.9	0.79 ± 0.08 L·min	18.7 ± 2.31 µM	totally inactivated	irreversible inhibitors	
N[C@@H](Cc1ccc(O)c(O)c1)C(=O)O [L-DOPA, 3,4-dihydroxyphenylalanine, reference compound]										0.25 ± 0.01 mM
